Experimental data published in paper PMC8147214, “Identification and Characterization of a Novel, Cold-Adapted D-Xylobiose- and D-Xylose-Releasing Endo-β-1,4-Xylanase from an Antarctic Soil Bacterium, Duganella sp. PAMC 27433” (Biomolecules, 2021).

Tested on: T1, rXylR
T1 construct: gene XylR; mature GH10 xylanase, signal peptide (1-23) removed, N-terminal His6 tag (pET-28a(+)) kept; E. coli BL21; precursor 373 aa; mature N-terminus AEDTPEP by primer
Test: p-nitrophenol release, Michaelis-Menten non-linear regression
Type: biochemical, Duganella sp. PAMC 27433
Settings: 50 mM sodium phosphate pH 5.5, 40 °C; substrate 1-10 mM
Excerpt: p-nitrophenol release, Michaelis-Menten non-linear regression on rXylR

O=[N+]([O-])c1ccc(O[C@@H]2O[C@H](CO)[C@@H](O[C@@H]3O[C@H](CO)[C@@H](O)[C@H](O)[C@H]3O)[C@H](O)[C@H]2O)cc1 [pNP-β-D-cellobioside]
Km: 1210 µM
